Measured values: patent publication US8058242B2, “Chimeric proteins with natriuretic activity” (The University of Queensland, priority 2004, dated 2011)
Positions of bridges follow the written chain, without caps; N, C: chain ends. Residues, ends and D or L forms follow the SMILES beside them.

Assays:
[1] = target: T1, NPR-A signaling in HeLa cells (Homo sapiens, UniProt P16066); test: cGMP AlphaScreen assay in HeLa cells (Examples 14, 15); assay type: cell-based; conditions: 30 minutes at 37° C.
T1 construct: Cyclic GMP (cGMP) elevation in HeLa cells in response to Natriuretic Peptide stimulation; endogenous in cells; host or cells: HeLa cells
T1 sequence (P16066 33-1061): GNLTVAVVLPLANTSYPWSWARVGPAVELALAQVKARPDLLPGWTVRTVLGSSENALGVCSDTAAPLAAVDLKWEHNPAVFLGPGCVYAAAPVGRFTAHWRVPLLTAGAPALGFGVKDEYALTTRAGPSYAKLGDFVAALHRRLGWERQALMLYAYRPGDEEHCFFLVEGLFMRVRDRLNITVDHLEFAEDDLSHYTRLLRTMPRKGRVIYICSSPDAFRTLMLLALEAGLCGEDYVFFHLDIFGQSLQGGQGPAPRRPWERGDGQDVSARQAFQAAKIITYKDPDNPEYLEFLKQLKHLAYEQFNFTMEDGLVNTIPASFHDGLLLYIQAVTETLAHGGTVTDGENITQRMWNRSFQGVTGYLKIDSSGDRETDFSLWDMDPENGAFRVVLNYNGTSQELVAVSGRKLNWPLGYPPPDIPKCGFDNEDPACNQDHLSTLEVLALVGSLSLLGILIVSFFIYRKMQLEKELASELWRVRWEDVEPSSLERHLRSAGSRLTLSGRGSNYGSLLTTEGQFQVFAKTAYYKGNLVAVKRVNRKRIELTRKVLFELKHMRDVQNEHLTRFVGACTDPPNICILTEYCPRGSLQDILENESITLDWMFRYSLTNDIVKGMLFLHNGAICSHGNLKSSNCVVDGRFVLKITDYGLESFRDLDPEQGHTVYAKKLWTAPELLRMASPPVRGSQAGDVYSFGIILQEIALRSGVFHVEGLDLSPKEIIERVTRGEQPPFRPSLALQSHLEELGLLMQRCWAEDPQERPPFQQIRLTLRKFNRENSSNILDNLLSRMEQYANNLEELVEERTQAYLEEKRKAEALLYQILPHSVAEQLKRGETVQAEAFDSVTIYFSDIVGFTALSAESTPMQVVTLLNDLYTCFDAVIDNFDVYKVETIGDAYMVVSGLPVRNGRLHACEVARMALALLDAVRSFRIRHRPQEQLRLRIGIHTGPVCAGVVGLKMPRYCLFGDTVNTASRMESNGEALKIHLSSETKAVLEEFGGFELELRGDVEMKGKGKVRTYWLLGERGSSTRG
Protocol: HeLa cells were maintained in RPMI cell culture medium (Gihco Invitrogen, Mt Waverley, Australia) supplemented with 10% Foetal Bovine Serum (Cambrex Bio Science, Rockland, USA). Upon reaching confluence, cells were sub-cultured such that they would be 70-90% confluent at time of assay.
Cyclic GMP (cGMP) elevation in HeLa cells in response to Natriuretic Peptide stimulation was performed using a cGMP AlphaScreen kit (PerkinElmer, Boston, USA), as follows for normal experiments: Cells were detached, pelleted to remove growth medium, and resuspended in Stimulation Buffer (Hank's Balanced Salt Solution, 0.1% Bovine Serum Albumin [BSA] (Sigma-Aldrich, Castle Hill, Australia), 1 mM 3-Isobutyl-1-methylxanthine [IBMX] (Sigma-Aldrich, Castle Hill, Australia)) and diluted to 6×10^6 cells per mL (30 000 cells per 5 μL). 5 μL of cells were added to wells of white 384-well OptiPlates (PerkinElmer, Boston, USA), and stimulated with increasing concentrations of peptide for 30 minutes at 37° C. Cells were then lysed with 10 μL Lysis buffer (dH2O, 0.3% Tween-20 (Sigma-Aldrich, Castle Hill, Australia), 5 mM HEPES (JRH Biosciences, Kansas, USA) and 0.1% BSA) and 5 μL acceptor bead mix (10 μL per mL acceptor beads and 1/3000 anti-cGMP antibody (BioVision, Mountain View, USA) in lysis buffer) added per well in the dark. Plates were incubated in the dark at room temperature for 30 minutes, then 5 μL donor bead mix (10 μL per ML donor beads and 0.3 nM biotinylated cGMP in lysis buffer) was added per well in the dark and the plate incubated overnight at room temperature. Signal was read using an EnVision plate reader (PerkinElmer, Boston, USA) and data analysed using Prism software. The cGMP standard curve was performed as per manufacturer's instructions.
To examine whether TNPc and synthetic analogs produced in the inventors' laboratory could stimulate NPR-A signaling, cGMP elevations in HeLa cells in response to these peptides were measured, as described above.

[2] = tested on: conscious normotensive rabbits; test: Blood pressure and heart rate in conscious normotensive rabbits, intravenous bolus of TDT analogs (Example 17); conditions: i.v. bolus 0.24 mg/kg; for MAP, mean difference from control: at MAP minimum
[3] = −Log10EC50 (pEC50) ± Standard Error, cGMP accumulation in HeLa cells

Row | SMILES | EC50 [1, 3] [µM] | HR, mean difference from control [2] | time after administration at which the MAP effect occurred, on average [2] [min] | MAP, mean difference from control [2] [mmHg] | EC50 ([1]; EC50, cGMP accumulation in HeLa cells) [µM]
1 | CC[C@H](C)[C@H](NC(=O)[C@H](CCCCN)NC(=O)[C@H](CO)NC(=O)[C@H](CC(=O)O)NC(=O)[C@@H](N)CO)C(=O)NCC(=O)N[C@@H](CC(N)=O)C(=O)NCC(=O)N[C@H]1CSSC[C@@H](C(=O)N[C@@H](CC(N)=O)C(=O)N[C@@H](CCCNC(=N)N)C(=O)N[C@H](C(=O)N[C@@H](CCSC)C(=O)N[C@@H](CCC(N)=O)C(=O)N[C@@H](CC(N)=O)C(=O)N2CCC[C@H]2C(=O)N2CCC[C@H]2C(=O)N[C@@H](CCCCN)C(=O)N[C@@H](CCCCN)C(=O)N[C@@H](Cc2ccccc2)C(=O)N[C@@H](CO)C(=O)NCC(=O)N[C@@H](CCC(=O)O)C(=O)O)[C@@H](C)CC)NC(=O)CNC(=O)[C@H](CC(C)C)NC(=O)CNC(=O)[C@H](CO)NC(=O)[C@H](C(C)C)NC(=O)[C@H](Cc2c[nH]cn2)NC(=O)[C@H](CC(N)=O)NC(=O)[C@H]([C@@H](C)CC)NC(=O)[C@H](CCCNC(=N)N)NC(=O)[C@H](CC(=O)O)NC(=O)[C@H]([C@@H](C)CC)NC(=O)[C@H](CCCCN)NC(=O)[C@H](Cc2c[nH]cn2)NC(=O)CNC(=O)[C@H](Cc2ccccc2)NC1=O [N22G-TDT] (H-SDSKIGNGCFGHKIDRINHVSGLGCNRIMQNPPKKFSGE-OH; disulfide 9-25) | 0.00314 | little effect on HR | 140 | −17.4±7.6 | –
2 | CC[C@H](C)[C@H](NC(=O)[C@H](CCCCN)NC(=O)[C@H](CO)NC(=O)[C@H](CC(=O)O)NC(=O)[C@@H](N)CO)C(=O)NCC(=O)N[C@@H](CC(N)=O)C(=O)NCC(=O)N[C@H]1CSSC[C@@H](C(=O)N[C@@H](CC(N)=O)C(=O)N[C@@H](CCCNC(=N)N)C(=O)N[C@H](C(=O)N[C@@H](CCSC)C(=O)N[C@@H](CCC(N)=O)C(=O)N[C@@H](CC(N)=O)C(=O)N2CCC[C@H]2C(=O)N2CCC[C@H]2C(=O)N[C@@H](CCCCN)C(=O)N[C@@H](CCCCN)C(=O)N[C@@H](Cc2ccccc2)C(=O)N[C@@H](CO)C(=O)NCC(=O)N[C@@H](CCC(=O)O)C(=O)O)[C@@H](C)CC)NC(=O)CNC(=O)[C@H](CC(C)C)NC(=O)[C@H](CC(N)=O)NC(=O)[C@H](CO)NC(=O)[C@H](C)NC(=O)[C@H](Cc2c[nH]cn2)NC(=O)[C@H](CC(N)=O)NC(=O)[C@H]([C@@H](C)CC)NC(=O)[C@H](CCCNC(=N)N)NC(=O)[C@H](CC(=O)O)NC(=O)[C@H]([C@@H](C)CC)NC(=O)[C@H](CCCCN)NC(=O)[C@H](Cc2c[nH]cn2)NC(=O)CNC(=O)[C@H](Cc2ccccc2)NC1=O [V20A-TDT] (H-SDSKIGNGCFGHKIDRINHASNLGCNRIMQNPPKKFSGE-OH; disulfide 9-25) | 0.382 | – | – | – | 0.455
3 | CC[C@H](C)[C@H](NC(=O)[C@H](CCCCN)NC(=O)[C@H](CO)NC(=O)[C@H](CC(=O)O)NC(=O)[C@@H](N)CO)C(=O)NCC(=O)N[C@@H](CC(N)=O)C(=O)NCC(=O)N[C@H]1CSSC[C@@H](C(=O)N[C@@H](CC(N)=O)C(=O)N[C@@H](CCCNC(=N)N)C(=O)N[C@H](C(=O)N[C@@H](CCSC)C(=O)N[C@@H](CCC(N)=O)C(=O)N[C@@H](CC(N)=O)C(=O)N2CCC[C@H]2C(=O)N2CCC[C@H]2C(=O)N[C@@H](CCCCN)C(=O)N[C@@H](CCCCN)C(=O)N[C@@H](Cc2ccccc2)C(=O)N[C@@H](CO)C(=O)NCC(=O)N[C@@H](CCC(=O)O)C(=O)O)[C@@H](C)CC)NC(=O)CNC(=O)[C@H](CC(C)C)NC(=O)[C@H](CC(N)=O)NC(=O)[C@H](CO)NC(=O)[C@H](C(C)C)NC(=O)[C@H](Cc2c[nH]cn2)NC(=O)[C@H](CC(N)=O)NC(=O)[C@H]([C@@H](C)CC)NC(=O)[C@H](CCCNC(=N)N)NC(=O)[C@H](CC(=O)O)NC(=O)[C@H]([C@@H](C)CC)NC(=O)[C@H](CCCCN)NC(=O)[C@H](CCCNC(=N)N)NC(=O)CNC(=O)[C@H](Cc2ccccc2)NC1=O [H12R-TDT] | – | −7±5 b/min | 97 | −9.2±2.2 | –
